The results in this text go back to ChEMBL document CHEMBL1125668, “Synthesis and anti-HIV activity of 2-, 3-, and 4-substituted analogues of 1-[(2-hydroxyethoxy)methyl]-6-(phenylthio)thymine (HEPT)” (J Med Chem, 1991).

In experiment [1] the test system is Human immunodeficiency virus 1. In words: Cytotoxic concentration of compound required to reduce the viability of mock infected MT-4 cells against the HIV-1 (HTLV-IIIB)induced cytopathic effect. The class given is functional. Conditions: Human immunodeficiency virus 1, MT4. (Protection from cytopathic effect is a common read-out in antiviral testing.)
Experiment [2] deals with Human immunodeficiency virus 1. Put plainly: Inhibitory activity against HIV-1 (HTLV-IIIB strain) replication in MT-4 cells. The class given is functional, organism-based. Particulars: Human immunodeficiency virus 1, MT4.
In experiment [3] the test system is Human immunodeficiency virus 2. In words: Inhibitory activity against HIV-2(LAV-2EHO strain) replication in MT-4 cells. The class given is functional, organism-based. Conditions: Human immunodeficiency virus 2, MT4.
Experiment [4] relates to Human immunodeficiency virus 1. In words: Inhibitory activity against HIV-1 (HTLV-IIIRF strain) replication in MT-4 cells. The class given is functional, organism-based. Conditions: Human immunodeficiency virus 1, MT4.
Experiment [5] concerns Human immunodeficiency virus 1. Put plainly: Cytotoxic concentration of compound required to incorporate [5-3H]-Urd into RNA of mock infected peripheral blood lymphocytes in HIV-1 (HTLV-IIIB)by 50%. The class given is functional.
The test system of experiment [6] is Human immunodeficiency virus 1. In words: Inhibitory activity against HIV-1 (HTLV-IIIB strain) replication in peripheral blood lymphocytes. The class given is functional, organism-based.
Experiment [7] deals with Human immunodeficiency virus 2. In words: Inhibitory activity against HIV-2(LAV-2ROD strain) replication in MT-4 cells. Format: functional, organism-based. Conditions: Human immunodeficiency virus 2, MT4.

A word on the CC50: it is the concentration giving 50% cytotoxicity. A lower CC50 goes with greater toxicity to the cells. As usually defined, the EC50 is the midpoint of the concentration-response curve. High values mean lower potency in that assay, low ones higher potency in that assay. In experiment [1], `O=c1[nH]c(=S)cc(Sc2ccccc2)n1COCCO` registered a CC50 of 4.1 µM. In experiment [2], this compound came in with a half-maximal effective concentration (EC50) of more than 4.1 µM.

For `Cc1c(Sc2ccccc2)n(COCCO)c(=O)n(Cc2ccccc2)c1=O`, in experiment [1], the cytotoxic concentration (CC50) was 40 µM. Moreover, the concentration for a half-maximal effect (EC50) in experiment [2] was more than 40 µM.

With `Cc1c(Sc2ccccc2)n(COCCO)c(=O)[nH]c1=O` [HEPT], the concentration for a half-maximal effect (EC50) in experiment [3] is more than 250 µM; in experiment [4], 8.1 µM; in experiment [2], 7 µM; in experiment [6], 7.9 µM; in experiment [7] it was more than 250 µM. Further, the CC50 turned out to be 740 µM in experiment [1] and 640 µM in experiment [5].

The compound `Cc1c(Sc2ccccc2)n(COCCO)c(=O)n(C)c1=O` had a CC50 in experiment [1] of more than 374 µM. Also, the EC50 in experiment [2] was more than 374 µM.

For the compound `Cc1c(N)nc(=O)n(COCCO)c1Sc1ccccc1`, in experiment [1], half-maximal cytotoxicity (CC50) was put at 91 µM. Besides, the EC50 in experiment [2] was more than 91 µM.

`Nc1ncnc2c1ncn2[C@H]1CC[C@@H](CO)O1` gave a cytotoxic concentration (CC50) in experiment [1] of more than 500 µM. Further, the concentration for a half-maximal effect (EC50) in experiment [2] is 6.3 µM; in experiment [7] it was 7.2 µM.

In turn, `Cc1c(Sc2ccccc2)n(COCCO)c(=O)[nH]c1=S` registered a CC50 in experiment [1] of 27 µM. In experiment [2], this compound showed an EC50 of more than 27 µM.

Regarding `Cc1c(Sc2ccccc2)n(COCCO)c(=S)[nH]c1=O`, the concentration for a half-maximal effect (EC50) is more than 100 µM in experiment [3]; 2.5 µM in experiment [4]; 0.98 µM in experiment [2]; 2.9 µM in experiment [6]; more than 100 µM in experiment [7]. Besides, the half-maximal cytotoxic concentration (CC50) in experiment [1] amounted to 123 µM; in experiment [5] it was 292 µM.

As for `O=c1cc(Sc2ccccc2)n(COCCO)c(=S)[nH]1`, the 50% cytotoxic concentration (CC50) in experiment [1] was found to be 198 µM. The same compound gave a 50% effective concentration (EC50) in experiment [2] of more than 198 µM.

Turning to `Nc1cc(Sc2ccccc2)n(COCCO)c(=O)n1`, in experiment [1], the CC50 is more than 250 µM. This compound showed an EC50 in experiment [2] of more than 250 µM.

The compound `Cc1cn([C@H]2C[C@H](N=[N+]=[N-])[C@@H](CO)O2)c(=O)[nH]c1=O` [ZIDOVUDINE] displayed a CC50 in experiment [1] of 7.8 µM. The 50% effective concentration (EC50) in experiment [2] is 0.003 µM; in experiment [7] it was 0.0028 µM.
